This note sets out measurements from patent US8426420B2, “Heterocyclic pyrazole-carboxamidesas P2Y12 antagonists” (Sanofi, priority 2007, dated 2013).

This assay relates to human platelet rich plasma. The assay can be described thus: Inhibition of human platelet aggregation, 96-well assay. Type of assay: cell-based. How it is done:
Inhibition of Human Platelet Aggregation
Alternatively to a binding assay which measures a compound's ability to bind to the P2Y12 receptor, the effect on cellular function was also determined. This ability of the compound was evaluated in two platelet aggregation assays: in 96-well plates and with the “Born”-method using single cuvettes.
Whole blood was collected from healthy volunteers using 20 ml syringes containing 2 ml of ACD-A Aqua-Citrat-Dextrose-A, Fresenius). The anticoagulated whole blood was transferred into 15 ml polypropylene conical tubes (10 ml per tube). The tubes were centrifuged for 15 minutes at 150×g at RT without using the centrifuge brake. This procedure leads to a pellet of cellular components and a supernatant of platelet rich plasma (PRP). The PRP layer was collected from each tube and pooled for each donor. To avoid carry over of cellular components following centrifugation, approximately 5 ml of PRP was left in the tube. The platelet concentration was determined using a Coulter Counter.
The 15 ml tubes containing the pellet of cellular components were centrifuged again for 10 minutes at 1940×g. This pelleted out most particulate blood constituents remaining, leaving a layer of Platelet Poor Plasma (PPP). The PPP was collected for each donor. The PRP layer, previously set aside, was diluted with PPP to a final concentration of approximately 3×E8 platelets/ml with the PPP.
The human platelet aggregation assay is performed in 96-well plates using a microtiter plate reader (SpectraMax Plus 384 with SoftMax Pro software from Molecular Devices). In the plate 15 μl of test compound at 10× final concentration in NaCl is mixed with 120 μl fresh PRP and incubated for 5 minutes. Following that incubation period, 15 μl of 40 μM ADP is added to the reaction mix. This addition of ADP is sufficient to induce aggregation in the absence of an inhibitor. The plates are then transferred to the microplate reader and aggregation is measured over 20 minutes. The instrument settings include:
Absorbance at 650 nm, run time 20 minutes with readings in 1-minute intervals and 50 seconds shaking between readings all performed at 37° C.

Setting [1] is: ADP-induced aggregation, human platelet rich plasma, 96-well plates, AUC of absorbance over 20 minutes.

As a reminder, the IC50 is the point on the concentration scale where inhibition reaches its midpoint. Read a low IC50 as inhibition by little substance. In turn, `O=C(O)CC[C@H](NC(=O)c1cc(OCC(=O)N2CCC[C@H]2C(=O)NC2CCC2)n(-c2ccccc2)n1)C(=O)N1CCN(C(=O)c2ccccc2)CC1` [Example 104, (S)-5-(4-Benzoyl-piperazin-1-yl)-4-({5-[2-((S)-2-cyclobutylcarbamoyl-pyrrolidin-1-yl)-2-oxo-ethoxy]-1-phenyl-1H-pyrazole-3-carbonyl}-amino)-5-oxo-pentanoic acid] came in with an IC50 (Homo sapiens, Platelet, 20 min) of 1230 nM.

Where the note is “Homo sapiens, Platelet, 20 min”, `CCOC(=O)N1CCN(C(=O)[C@H](CCC(=O)OCC2(CC)COC2)NC(=O)c2cc(OCC(=O)N3CCC[C@H]3C(=O)NC3CCC3)n(-c3ccccc3)n2)CC1` [Example 204, 4-[(S)-2-({5-[2-((S)-2-Cyclobutylcarbamoyl-pyrrolidin-1-yl)-2-oxo-ethoxy]-1-phenyl-1H-pyrazole-3-carbonyl}-amino)-4-(3-ethyl-oxetan-3-ylmethoxycarbonyl)-butyryl]-piperazine-1-carboxylic acid ethyl ester] came in with an IC50 of 720 nM.

Under setting [1], `CCOC(=O)N1CCN(C(=O)[C@H](CCC(=O)O)NC(=O)c2cc(OCC(=O)N3CC(F)(F)C[C@H]3C(=O)NCC3CC3)n(-c3ccccc3)n2)CC1` [Example 166, 4-[(S)-4-Carboxy-2-({5-[2-((S)-2-(cycloproylmethyl-carbamoyl)-4,4-difluoro-pyrrolidin-1-yl)-2-oxo-ethoxy]-1-phenyl-1H-pyrazole-3-carbonyl}-amino)-butyryl]-piperazine-1-carboxylic acid ethyl ester] showed an IC50 of 80 nM.

In turn, “4-[2-({5-[2-((S)-2-Cyclobutylcarbamoyl-pyrrolidin-1-yl)-2-oxo-ethoxy]-1-phenyl-1H-pyrazole-3-carbonyl}-amino)-acetyl]-piperazine-1-carboxylic acid 2-methoxy-ethyl ester [Example 254]” showed an IC50 under setting [1] of 750 nM.

In turn, `CCOC(=O)N1CCN(C(=O)[C@H](CCC(=O)O)NC(=O)c2cc(O[C@H](C)C(=O)N3CCC[C@H]3C(=O)N3CCCC3)n(-c3ccccc3)n2)CC1` [Example 64, 4-{(S)-4-Carboxy-2-[(5-{(R)-1-methyl-2-oxo-2-[(S)-2-(pyrrolidine-1-carbonyl)-pyrrolidin-1-yl]-ethoxy}-1-phenyl-1H-pyrazole-3-carbonyl)-amino]-butyryl}-piperazine-1-carboxylic acid ethyl ester] came in with a 50% inhibitory concentration (IC50) (Homo sapiens, Platelet, 20 min) of 190 nM.

As for `CCNC(=O)[C@@H]1CCCN1C(=O)COc1cc(C(=O)N[C@@H](CCC(=O)O)C(=O)N2CCN(C(=O)OCC)CC2)nn1-c1ccccc1` [Example 8, 4-{(S)-4-Carboxy-2-[(5-{2-[(S)-2-ethylcarbamoyl-pyrrolidin-1-yl]-2-oxo-ethoxy}-1-phenyl-1H-pyrazole-3-carbonyl)-amino]-butyryl}-piperazine-1-carboxylic acid ethyl ester], the IC50 (Homo sapiens, Platelet, 20 min) turned out to be 470 nM. Against the preceding compound, the IC50 is about 2.5-fold higher.

Consider `CCCOC(=O)N1CCN(C(=O)[C@H](CCC(=O)OC)NC(=O)c2cc(OCC(=O)N3CCC[C@H]3C(=O)NC3CCC3)n(-c3ccccc3)n2)CC1` [Example 190, 4-[(S)-2-({5-[2-((S)-2-Cyclobutylcarbamoyl-pyrrolidin-1-yl)-2-oxo-ethoxy]-1-phenyl-1H-pyrazole-3-carbonyl}-amino)-4-methoxycarbonyl-butyryl]-piperazine-1-carboxylic acid propyl ester], for which half-maximal inhibition (Homo sapiens, Platelet, 20 min) (IC50) was put at 180 nM.

Consider `O=C(NCC(=O)N1CCN(C(=O)[C@H]2C[C@@H]2F)CC1)c1cc(OCC(=O)N2CCC[C@H]2C(=O)NC2CCC2)n(-c2ccccc2)n1` [Example 245, 5-[2-((S)-2-Cyclobutylcarbamoyl-pyrrolidin-1-yl)-2-oxo-ethoxy]-1-phenyl-1H-pyrazole-3-carboxylic acid {2-[4-((1R,2S)-2-fluoro-cyclopropanecarbonyl)-piperazin-1-yl]-2-oxo-ethyl}-amide], for which the IC50 (Homo sapiens, Platelet, 20 min) came to 800 nM.

Turning to `CCOCCOC(=O)N1CCN(C(=O)CNC(=O)c2cc(OCC(=O)N3CCC[C@H]3C(=O)NC3CCC3)n(-c3ccccc3)n2)CC1` [Example 257, 4-[2-({5-[2-((S)-2-Cyclobutylcarbamoyl-pyrrolidin-1-yl)-2-oxo-ethoxy]-1-phenyl-1H-pyrazole-3-carbonyl}-amino)-acetyl]-piperazine-1-carboxylic acid 2-ethoxy-ethyl ester], the IC50 (Homo sapiens, Platelet, 20 min) turned out to be 240 nM.

Turning to `CCOC(=O)N1CCN(C(=O)[C@H](CCC(=O)OCCC(C)OC)NC(=O)c2cc(OCC(=O)N3CCC[C@H]3C(=O)NC3CCC3)n(-c3ccccc3)n2)CC1` (stereo partly drawn) [Example 205, 4-[(S)-2-({5-[2-((S)-2-Cyclobutylcarbamoyl-pyrrolidin-1-yl)-2-oxo-ethoxy]-1-phenyl-1H-pyrazole-3-carbonyl}-amino)-4-(3-methoxy-butoxycarbonyl)-butyryl]-piperazine-1-carboxylic acid ethyl ester], under “Homo sapiens, Platelet, 20 min”, the IC50 came out at 460 nM.

Compound `CCOC(=O)N1CCN(C(=O)[C@H](CCC(=O)OCC2CCOC2)NC(=O)c2cc(OCC(=O)N3CCC[C@H]3C(=O)NC3CCC3)n(-c3ccccc3)n2)CC1` (stereo partly drawn) [Example 202, 4-[(S)-2-({5-[2-((S)-2-Cyclobutylcarbamoyl-pyrrolidin-1-yl)-2-oxo-ethoxy]-1-phenyl-1H-pyrazole-3-carbonyl}-amino)-4-(tetrahydro-furan-3-ylmethoxycarbonyl)-butyryl]piperazine-1-carboxylic acid ethyl ester] yielded an IC50 (Homo sapiens, Platelet, 20 min) of 840 nM. This IC50 lies about 1.8-fold higher than the previous one.

`CCOC(=O)N1CCN(C(=O)[C@H](CCC(=O)OCC2(C)COC2)NC(=O)c2cc(OCC(=O)N3CCC[C@H]3C(=O)NC3CCC3)n(-c3ccccc3)n2)CC1` [Example 203, 4-[(S)-2-({5-[2-((S)-2-Cyclobutylcarbamoyl-pyrrolidin-1-yl)-2-oxo-ethoxy]-1-phenyl-1H-pyrazole-3-carbonyl}-amino)-4-(3-methyl-oxetan-3-ylmethoxycarbonyl)-butyryl]-piperazine-1-carboxylic acid ethyl ester] came in with an IC50 (Homo sapiens, Platelet, 20 min) of 490 nM.

For `CCOC(=O)N1CCN(C(=O)[C@H](CCC(=O)OCCCOC)NC(=O)c2cc(OCC(=O)N3CCC[C@H]3C(=O)NC3CCC3)n(-c3ccccc3)n2)CC1` [Example 200, 4-[(S)-2-({5-[2-((S)-2-Cyclobutylcarbamoyl-pyrrolidin-1-yl)-2-oxo-ethoxy]-1-phenyl-1H-pyrazole-3-carbonyl}-amino)-4-(3-methoxy-propoxycarbonyl)-butyryl]-piperazine-1-carboxylic acid ethyl ester], where the note is “Homo sapiens, Platelet, 20 min”, the IC50 came to 420 nM.

For `CCOC(=O)N1CCN(C(=O)[C@H](CCC(=O)O)NC(=O)c2cc(OCC(=O)N3CCN(C(C)=O)CC3)n(-c3ccccc3)n2)CC1` [Example 27, 4-[(S)-2-({5-[2-(4-Acetyl-piperazin-1-yl)-2-oxo-ethoxy]-1-phenyl-1H-pyrazole-3-carbonyl}-amino)-4-carboxy-butyryl]-piperazine-1-carboxylic acid ethyl ester], it took 760 nM to reach half-maximal inhibition (Homo sapiens, Platelet, 20 min) (IC50). This IC50 lies about 1.8-fold higher than the previous one.

With `CCOC(=O)N1CCN(C(=O)[C@H](CCC(=O)O)NC(=O)c2cc(O[C@@H](C)C(=O)N3CCC[C@H]3C(=O)NCC(F)(F)F)n(-c3ccccc3)n2)CC1` [Example 70, 4-[(S)-4-Carboxy-2-({5-[(S)-2-((S)-2-(2,2,2-trifluoroethylcarbamoyl)-pyrrolidin-1-yl)-1-methyl-2-oxo-ethoxy]-1-phenyl-1H-pyrazole-3-carbonyl}-amino)-butyryl]-piperazine-1-carboxylic acid ethyl ester], where the note is “Homo sapiens, Platelet, 20 min”, the IC50 stood at 260 nM. Against the preceding compound, the IC50 is about 2.9-fold lower.

Take `CCOC(=O)N1CCN(C(=O)[C@H](CCC(=O)O)NC(=O)c2cc(O[C@@H](C)C(=O)N3CCC[C@H]3C(=O)NCC3CC3)n(-c3ccccc3)n2)CC1` [Example 68, 4-[(S)-4-Carboxy-2-({5-[(S)-2-((S)-2-cyclopropylmethylcarbamoyl-pyrrolidin-1-yl)-1-methyl-2-oxo-ethoxy]-1-phenyl-1H-pyrazole-3-carbonyl}-amino)-butyryl]-piperazine-1-carboxylic acid ethyl ester]: under “Homo sapiens, Platelet, 20 min”, the IC50 was 70 nM.

`CCCCOC(=O)NC1CCN(C(=O)[C@H](CCC(=O)O)NC(=O)c2cc(OCC(=O)N3CCC[C@H]3C(=O)NC3CCC3)n(-c3ccccc3)n2)C1` (stereo partly drawn) [Example 108, (S)-5-(3-Butoxycarbonylamino-pyrrolidin-1-yl)-4-({5-[2-((S)-2-cyclobutylcarbamoyl-pyrrolidin-1-yl)-2-oxo-ethoxy]-1-phenyl-1H-pyrazole-3-carbonyl}-amino)-5-oxo-pentanoic acid] registered an IC50 (Homo sapiens, Platelet, 20 min) of 1880 nM.
